Assay results: patent US20060252798A1, “Metal ion chelators and therapeutic use thereof” (priority 2003, published 2006)

Tested on: intracellular ROS
Assay: Intracellular ROS assay (DCF-DA, flow cytometry), M109 cells
Type: cell-based, mouse
Conditions: 1 μM
Procedure: Intracellular ROS generation was assessed using the cell-permeable dye 2′,7′-dichlorofluorescein-diacetate (DCF-DA) (Sigma). DCF-DA readily diffuses into cells and becomes highly fluorescent when oxidised by O2^•−, H2O2, or OH^−.^29 Cellular fluorescence intensity is directly proportional to the level of intracellular ROS.^29 M109 cells (1×10^5 cells/well) were incubated with or without 1 μM Dp44mT for 0-48 h or 50 μM H2O2 (positive control) for 10 min at 37° C. The cells were then incubated with DCF-DA (5 μM) for 20 min at 37° C., washed twice, and detached from the culture plates. The fluorescence of oxidised DCF in cells was measured using flow cytometry.^29)
To test whether induction of h-cytc release from the mitochondrion (FIG. 15A) and the imbalance of Bcl-2/Bax expression (FIG. 15B) was due to the presence of ROS, intracellular ROS were measured by flow cytometry using the DCFH-DA probe which becomes fluorescent when oxidised by O2^•−, H2O2, or OH^−.^29 Incubation of M109 cells with Dp44mT (1 μM) increased the levels of oxidised probe as a function of time. After 2 h, a 25±10% increase in oxidised DCFH-DA fluorescence was found compared to the 0 h time point, and this increased to 486±96% after 48 h (FIG. 15C). For comparison, a 10 min incubation with the positive control, H2O2 (50 μM), increased fluorescence to 1312±46% of the 0 h time point (FIG. 15C)

SMILES: CN(C)C(=S)NN=C(c1ccccn1)c1ccccn1 [Dp44mT, di-2-pyridylketone 4,4-dimethyl-3-thiosemicarbazone]
- increase in oxidised DCFH-DA fluorescence compared to the 0 h time point (2 h): 25±10%
- oxidised DCFH-DA fluorescence (increased to) (48 h): 486±96%
